From patent US11311483B2, “Curcumin solubilisate” (AQUANOVA AG, priority 2012, dated 2022)

Assay: human study: plasma curcumin after a single oral dose of 500 mg curcumin
Type: in vivo
Conditions: 24 healthy persons, read-out: curcumin concentration in blood plasma
Description: The solubilisate according to the invention is further characterized in that the total curcuminoid concentration in human blood plasma, measured one hour after oral administration of 500 mg curcumin in the form of the solubilisate, is approximately 500 ng curcuminoid per ml plasma±100 ng curcuminoid per ml plasma. In contrast, when native curcumin is taken orally in powdered form, only approximately 1.3 ng curcuminoid per ml plasma is achieved after one hour.
The human study on which these values are based was conducted on 24 healthy persons between 19 and 29 years of age, who received a single oral dose of 500 mg native curcumin or curcumin in the form of the solubilisate according to the invention. Blood samples were withdrawn at various times over a period of 24 hours after the curcumin was taken. To minimize the possible concurrent influence of digested food, the test subjects were served standardized meals. One hour after taking the curcumin in native form, less than 1 nmol/l plasma was measured; 8 hours after administration, 2.4 nmol/l was measured; and 24 hours after administration, 2.4 nmol/l was measured. In contrast, for curcumin from the solubilisate according to the invention, one hour after administration, 1,964 nmol/l was measured in the blood plasma; 8 hours after administration, 307.1 nmol/l was measured; and 24 hours after administration, 67.7 nmol/l was measured. A solubilisate containing […] curcumin was used (the commercial product “6% NovaSOL Curcumin” of the applicant).

COc1cc(/C=C/C(=O)CC(=O)/C=C/c2ccc(O)c(OC)c2)ccc1O [native curcumin, Curcumin]
concentration at 8 h (8 hours after single oral dose of 500 mg): 2.4 nM
concentration at 24 h (24 hours after single oral dose of 500 mg): 2.4 nM
concentration at 1 h (one hour after single oral dose of 500 mg): < 1 nM
